Results taken from patent US12492188B2, “1H-benzo[D]imidazole derivatives as TLR9 inhibitors for the treatment of fibrosis” (BRISTOL-MYERS SQUIBB COMPANY, priority 2020, dated 2025).
Read-outs that look alike come from different tables or passages of the source.

Assays:
Format in all cases: cell-based
[1] = biological target: T1, human TLR7 (Homo sapiens, UniProt Q9NYK1); test: TLR7 inhibition reporter assay (HEK-Blue cells, secreted embryonic alkaline phosphatase reporter); settings: HEK-Blue cells overexpressing human TLR7, stimulated with gardiquimod 7.5 μM; read-out: TLR 7 IC50
T1 construct: host or cells: HEK-Blue cells (HEK293-derived reporter line)
T1 sequence (Q9NYK1 27-1049): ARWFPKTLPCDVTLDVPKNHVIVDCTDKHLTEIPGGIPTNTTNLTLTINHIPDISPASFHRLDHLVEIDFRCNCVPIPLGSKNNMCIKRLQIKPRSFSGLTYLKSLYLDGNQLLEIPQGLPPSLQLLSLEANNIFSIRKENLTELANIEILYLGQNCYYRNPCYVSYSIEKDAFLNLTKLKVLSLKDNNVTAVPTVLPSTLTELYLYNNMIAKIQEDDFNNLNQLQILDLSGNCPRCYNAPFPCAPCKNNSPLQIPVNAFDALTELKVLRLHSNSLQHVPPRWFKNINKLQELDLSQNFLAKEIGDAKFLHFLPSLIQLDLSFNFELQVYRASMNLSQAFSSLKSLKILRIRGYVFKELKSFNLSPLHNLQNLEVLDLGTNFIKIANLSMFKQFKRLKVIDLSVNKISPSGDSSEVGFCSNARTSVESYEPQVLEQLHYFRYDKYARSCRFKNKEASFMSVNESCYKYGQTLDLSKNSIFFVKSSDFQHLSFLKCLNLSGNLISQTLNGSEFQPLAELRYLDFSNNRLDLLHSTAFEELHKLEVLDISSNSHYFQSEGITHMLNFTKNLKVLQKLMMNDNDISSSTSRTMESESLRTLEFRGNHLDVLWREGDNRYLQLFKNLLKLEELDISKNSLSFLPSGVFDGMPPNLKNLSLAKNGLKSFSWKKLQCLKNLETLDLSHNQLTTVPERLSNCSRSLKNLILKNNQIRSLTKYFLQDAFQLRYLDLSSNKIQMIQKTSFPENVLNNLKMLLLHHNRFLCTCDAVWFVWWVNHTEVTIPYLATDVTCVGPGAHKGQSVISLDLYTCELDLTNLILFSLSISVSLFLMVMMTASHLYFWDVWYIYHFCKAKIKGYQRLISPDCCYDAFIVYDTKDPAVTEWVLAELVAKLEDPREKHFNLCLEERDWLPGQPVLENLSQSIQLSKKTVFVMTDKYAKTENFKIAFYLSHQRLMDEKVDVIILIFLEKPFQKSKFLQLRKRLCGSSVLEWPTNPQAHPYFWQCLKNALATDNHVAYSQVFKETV
Procedure, shortened: (§1)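 HEK-Blue cells overexpressing the respective receptor, with an NF-κB/AP-1-driven SEAP reporter, were pre-treated with compound (0.05 nM–50 μM) for 30 min at room temperature. Stimulation used gardiquimod 7.5 μM (TLR7), R848 15.9 μM (TLR8) or ODN2006 5 nM (TLR9); SEAP was read after 22 h at 37 °C as percent inhibition.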

[2] = biological target: T2, human TLR9 (Homo sapiens, UniProt Q9NR96); test: TLR9 inhibition reporter assay (HEK-Blue cells, secreted embryonic alkaline phosphatase reporter)
T2 construct: host or cells: HEK-Blue cells (HEK293-derived reporter line)
T2 sequence (Q9NR96 26-1032): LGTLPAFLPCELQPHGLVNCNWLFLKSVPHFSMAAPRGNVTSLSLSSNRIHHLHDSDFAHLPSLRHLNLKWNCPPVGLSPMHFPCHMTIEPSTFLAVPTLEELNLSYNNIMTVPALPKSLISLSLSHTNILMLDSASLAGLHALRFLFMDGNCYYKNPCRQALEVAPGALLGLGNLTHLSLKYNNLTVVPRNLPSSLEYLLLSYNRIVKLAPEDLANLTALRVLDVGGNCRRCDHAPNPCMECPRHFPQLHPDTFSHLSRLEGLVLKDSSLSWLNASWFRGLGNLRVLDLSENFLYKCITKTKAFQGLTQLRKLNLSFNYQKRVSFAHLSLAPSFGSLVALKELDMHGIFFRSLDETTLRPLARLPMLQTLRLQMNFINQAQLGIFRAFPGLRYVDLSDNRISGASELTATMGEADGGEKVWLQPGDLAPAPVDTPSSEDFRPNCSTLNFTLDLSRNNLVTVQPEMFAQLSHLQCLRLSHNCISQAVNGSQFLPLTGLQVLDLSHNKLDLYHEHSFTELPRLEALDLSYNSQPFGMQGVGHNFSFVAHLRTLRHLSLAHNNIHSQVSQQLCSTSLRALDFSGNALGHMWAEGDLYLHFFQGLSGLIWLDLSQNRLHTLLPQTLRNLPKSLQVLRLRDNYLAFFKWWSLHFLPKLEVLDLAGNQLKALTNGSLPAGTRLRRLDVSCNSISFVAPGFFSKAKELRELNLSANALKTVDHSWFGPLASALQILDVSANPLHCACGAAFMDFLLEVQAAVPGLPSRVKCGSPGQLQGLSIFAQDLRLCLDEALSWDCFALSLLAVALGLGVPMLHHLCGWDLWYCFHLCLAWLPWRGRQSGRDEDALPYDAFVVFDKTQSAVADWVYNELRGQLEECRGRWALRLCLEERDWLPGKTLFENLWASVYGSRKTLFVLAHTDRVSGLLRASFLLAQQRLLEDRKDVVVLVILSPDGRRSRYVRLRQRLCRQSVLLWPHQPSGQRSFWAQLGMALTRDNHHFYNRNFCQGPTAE
Procedure, shortened: as §1

[3] = biological target: T3, human TLR8 (Homo sapiens, UniProt Q9NR97); test: TLR8 inhibition reporter assay (HEK-Blue cells, secreted embryonic alkaline phosphatase reporter); settings: HEK-Blue cells overexpressing human TLR8, stimulated with R848 15.9 μM; read-out: TLR 8 IC50
T3 construct: host or cells: HEK-Blue cells (HEK293-derived reporter line)
T3 sequence (Q9NR97 27-1041): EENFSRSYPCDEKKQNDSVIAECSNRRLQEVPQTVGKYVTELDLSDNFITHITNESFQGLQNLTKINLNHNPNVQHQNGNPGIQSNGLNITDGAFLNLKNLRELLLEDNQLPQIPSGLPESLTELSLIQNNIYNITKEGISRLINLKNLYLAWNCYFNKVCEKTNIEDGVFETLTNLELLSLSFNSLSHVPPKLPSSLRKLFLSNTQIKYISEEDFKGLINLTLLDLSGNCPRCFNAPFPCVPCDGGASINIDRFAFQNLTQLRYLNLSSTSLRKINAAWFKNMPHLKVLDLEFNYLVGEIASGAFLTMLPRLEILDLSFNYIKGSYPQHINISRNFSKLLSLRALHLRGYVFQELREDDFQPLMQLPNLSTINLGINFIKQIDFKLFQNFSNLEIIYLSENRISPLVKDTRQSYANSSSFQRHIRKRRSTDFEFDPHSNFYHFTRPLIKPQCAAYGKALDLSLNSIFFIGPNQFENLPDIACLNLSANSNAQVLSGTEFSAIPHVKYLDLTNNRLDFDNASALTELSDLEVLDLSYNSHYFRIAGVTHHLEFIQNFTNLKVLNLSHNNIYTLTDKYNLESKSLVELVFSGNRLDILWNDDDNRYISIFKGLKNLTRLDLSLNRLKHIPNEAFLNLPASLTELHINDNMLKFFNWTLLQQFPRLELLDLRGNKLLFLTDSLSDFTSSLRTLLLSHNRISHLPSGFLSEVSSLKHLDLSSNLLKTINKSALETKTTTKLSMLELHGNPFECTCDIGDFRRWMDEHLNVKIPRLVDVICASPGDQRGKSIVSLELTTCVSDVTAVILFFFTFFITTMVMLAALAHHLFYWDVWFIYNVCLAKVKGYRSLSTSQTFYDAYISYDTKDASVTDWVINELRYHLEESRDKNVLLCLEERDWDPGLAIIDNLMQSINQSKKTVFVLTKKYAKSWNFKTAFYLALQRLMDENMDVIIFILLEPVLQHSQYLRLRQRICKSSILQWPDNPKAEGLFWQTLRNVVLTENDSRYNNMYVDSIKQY
Procedure, shortened: as §1

[4] = HEK-Blue cells overexpressing human TLR9, stimulated with ODN2006 5 nM, read-out: TLR 9 IC50
[5] = HEK-Blue cells overexpressing human TLR9, stimulated with ODN2006 5 nM, 22 hour incubation, reporter readout

| IC50 [1] [nM] | IC50 [2] [nM] | IC50 [2, 4] [nM] | IC50 [3] [nM] | IC50 [2, 5] [nM] | IC50 ([2]; HEK-Blue human TLR9 reporter cells) [nM] | Compound |
| --- | --- | --- | --- | --- | --- | --- |
| 10500 | 200 | 204 | 23700 | – | – | COCCN1C2CCC1CC(N1CCC(c3cc(C)c4nc(-c5ccc(OC)c(OC)c5)n(C)c4c3)CC1)C2 (single isomer, unassigned) [Example 169, 2-(3,4-dimethoxyphenyl)-6-(1-(8-(2-methoxyethyl)-8-azabicyclo[3.2.1]octan-3-yl)piperidin-4-yl)-1,4-dimethyl-1H-benzo[d]imidazole] |
| 5700 | – | 212 | > 50000 | 210 | – | COc1ccc(-c2nc3ccc(C4CCN(C5CCN(CC(C)C)CC5)CC4)cc3n2CC(F)F)cc1OC [Example 32, 1-(2,2-difluoroethyl)-2-(3,4-dimethoxyphenyl)-6-(1′-isobutyl-[1,4′-bipiperidin]-4-yl)-1H-benzo[d]imidazole] |
| 2300 | – | 149 | 46000 | 150 | – | CCn1c(-c2ccc(OC)c(OC)c2)nc2ccc(C3CCN(C4CCN(CC(C)C)CC4)CC3)cc21 [Example 40, 2-(3,4-dimethoxyphenyl)-1-ethyl-6-(1′-isobutyl-[1,4′-bipiperidin]-4-yl)-1H-benzo[d]imidazole] |
| 8900 | 31 | 31 | > 25000 | – | – | Cc1cc(C2CCN(C3CC4CCC(C3)N4CC3CCC3)CC2)cc2c1nc(-c1ccc(S(C)(=O)=O)cc1)n2C (single isomer, unassigned) [Example 156, 6-(1-(8-(cyclobutylmethyl)-8-azabicyclo[3.2.1]octan-3-yl)piperidin-4-yl)-1,4-dimethyl-2-(4-(methylsulfonyl)phenyl)-1H-benzo[d]imidazole] |

The remaining lines, values behind:

| Compound | IC50 [1] [nM] | IC50 [2] [nM] | IC50 [2, 4] [nM] | IC50 [3] [nM] | IC50 [2, 5] [nM] | IC50 ([2]; HEK-Blue human TLR9 reporter cells) [nM] |
| --- | --- | --- | --- | --- | --- | --- |
| Cn1c(-c2ccc(S(C)(=O)=O)cc2)nc2ccc(C3CCN(C4CC5CCC(C4)N5CC4CC4)CC3)c(F)c21 (stereo not drawn) [Example 269, 6-(1-(8-(cyclopropylmethyl)-8-azabicyclo[3.2.1]octan-3-yl)piperidin-4-yl)-7-fluoro-1-methyl-2-(4-(methylsulfonyl)phenyl)-1H-benzo[d]imidazole] | 12000 | 180 | 176 | 21500 | – | – |
| Cc1cc(-c2ccc(CN3CCC(N4CCCC4)CC3)cc2)cc2c1nc(-c1ccc(S(C)(=O)=O)cc1)n2C1CC1 [Example 372, 1-cyclopropyl-4-methyl-2-(4-(methylsulfonyl)phenyl)-6-(4-((4-(pyrrolidin-1-yl)piperidin-1-yl)methyl)phenyl)-1H-benzo[d]imidazole] | 1400 | – | – | 5100 | 54 | – |
| COc1ccc(-c2nc3c(C)cc(C4CCN(C5CC6(C5)CN(C5CCC5)C6)CC4)cc3n2C)cc1OC [Example 49, 6-(1-(2-cyclobutyl-2-azaspiro[3.3]heptan-6-yl)piperidin-4-yl)-2-(3,4-dimethoxyphenyl)-1,4-dimethyl-1H-benzo[d]imidazole] | 5800 | – | 65 | > 50000 | 65 | – |
| Cc1cc(C2CCN(C3CCN(CC(C)C)CC3)CC2)cc2[nH]c(-c3ccc4c(c3)OCCO4)nc12 [Example 62, 2-(2,3-dihydrobenzo[b][1,4]dioxin-6-yl)-6-(1′-isobutyl-[1,4′-bipiperidin]-4-yl)-4-methyl-1H-benzo[d]imidazole] | 740 | – | 345 | > 50000 | 350 | – |
| Cc1cc(-c2ccc(N3CCC(N4CCCC4)CC3)cc2)cc2c1nc(-c1ccc(S(C)(=O)=O)cc1)n2C [Example 367, 1,4-dimethyl-2-(4-(methylsulfonyl)phenyl)-6-(4-(4-(pyrrolidin-1-yl)piperidin-1-yl)phenyl)-1H-benzo[d]imidazole] | 2300 | – | 508 | 1900 | 510 | – |
| COCCN1CCCC(N2CCC(c3cc(C)c4nc(-c5ccc(S(C)(=O)=O)cc5)n(C)c4c3)CC2)CC1 (single isomer, unassigned) [Example 308, 6-(1-(1-(2-methoxyethyl)azepan-4-yl)piperidin-4-yl)-1,4-dimethyl-2-(4-(methylsulfonyl)phenyl)-1H-benzo[d]imidazole] | 2600 | – | 6.7 | > 50000 | – | 6.7 |
| CC(C)N1CCCC(N2CCC(c3ccc4nc(-c5ccc(S(C)(=O)=O)cc5)n(C)c4c3F)CC2)CC1 (single isomer, unassigned) [Example 113, 7-fluoro-6-(1-(1-isopropylazepan-4-yl)piperidin-4-yl)-1-methyl-2-(4-(methylsulfonyl)phenyl)-1H-benzo[d]imidazole] | > 50000 | – | – | > 50000 | 32 | – |
